Experimental data taken from paper PMC9157788, “Design, Synthesis, and Apoptosis-Promoting Effect Evaluation of Rhopaladins’ Analog 4-Arylidene-5-Oxopyrrolidine Derivatives” (Frontiers in Chemistry, 2022).

How the values were obtained:
CaSki cells = assay: MTT cell viability assay, CaSki; format: cell-based; settings: Homo sapiens, Ca-Ski, 48 h, read-out: Half inhibitory concentration (IC50), CaSki
Experimental: (§1) HepG2 (human epidermoid hepatocellular carcinoma cell), 7402 (human epidermoid hepatocellular carcinoma cell), C-33A (human epidermoid cervical carcinoma cell), and HeLa (human epidermoid cervical adenocarcinoma cell) were incubated in Dulbecco’s modified Eagle’s medium (DMEM), which was purchased from Gibco (Grand Island, NY, United States). SiHa cells (human epidermoid cervical squamous cell carcinoma) were incubated in minimum essential medium (MEM, also from Gibco). CaSki (human epidermoid cervical carcinoma cell) and LO2 (human normal liver cell) were incubated in minimum essential medium (MEM, also from Gibco). All cells were maintained at 37°C in a humidified incubator with 5% carbon dioxide, and the media contained 10% fetal bovine serum (FBS, Corning, United States) and 1% penicillin–streptomycin antibiotic solution (Corning, United States). SiHa and CaSki were bought from the China Center for Type Culture Collection (CCTCC). The other five types of cancer cell lines were obtained from the Experiment Center of Medicine, Sinopharm Dongfeng Hospital, Hubei University of Medicine. The compounds were dissolved in dimethyl sulfoxide (DMSO, MP Biomedicals, United States), and cisplatin was purchased from Aladdin, Shanghai, China. The control (0 μM) group was treated with DMSO only in the same conditions, and the DMSO content in the medium was less than 0.1%.
(§2) Cell viability was measured by a 3-(4,5-dimethylthiazol-2-yl)-2,5-diphenyltetrazolium bromide (MTT, MultiSciences, China) assay. The specific experimental steps referred to our previous research ([Zhu et al., 2020]). For each cell line, cells were digested and seeded in 96-well plates at a density of 1 × 10^3 cells/well. […] Then, the formed formazan crystals were dissolved in DMSO, and the plates were estimated in a […] microplate reader (BioTek Inc., Bio-Tek MQX200) at a wavelength of 490 nm. Optical density (OD) values were obtained, and the inhibition rate and IC50 of each compound on different cells were calculated by GraphPad Prism 8.0.1 software. […]

HeLa cells = assay: MTT cell viability assay, HeLa; format: cell-based; settings: Homo sapiens, 48 h, read-out: Half inhibitory concentration (IC50), HeLa
Experimental: as §1, §2

LO2 cells = assay: MTT cell viability assay, normal liver LO2; format: cell-based, human
Experimental: as §1
Cell viability was measured by a 3-(4,5-dimethylthiazol-2-yl)-2,5-diphenyltetrazolium bromide (MTT, MultiSciences, China) assay. The specific experimental steps referred to our previous research ([Zhu et al., 2020]). For each cell line, cells were digested and seeded in 96-well plates at a density of 1 × 10^3 cells/well. After 24 h of culture, the cells were adherent and treated with varying concentrations of RPDPRH (0, 3.125, 6.25, 12.5, 25, 50, and 100 μM). Cells without treatment were used as a solvent control group (0 μM, DMSO) and those with cisplatin treatment served as a positive control. After 48 h of treatment, MTT solution was added and incubated for 4 h. Then, the formed formazan crystals were dissolved in DMSO, and the plates were estimated in a […] microplate reader (BioTek Inc., Bio-Tek MQX200) at a wavelength of 490 nm. Optical density (OD) values were obtained, and the inhibition rate and IC50 of each compound on different cells were calculated by GraphPad Prism 8.0.1 software. Cell inhibition rate (%) = 1− [(OD experimental-OD blank)/(OD control-OD blank)] × 100%.

HepG2 cells = assay: Annexin V-FITC/PI flow cytometry apoptosis assay, HepG2; format: cell-based, human; settings: 48 h; for total apoptosis rate: DMSO control 7.73 ± 2.18%
Experimental: The effect of RPDPRH on apoptosis was performed using the Annexin V-FITC/PI Apoptosis kit (MultiSciences, China), following the manufacturer’s protocol. The cells were digested, dispersed, and plated into six-well plates with 2 × 10^4 cells/well and treated with RPDPRH (0, 6.25, 12.5, and 25 μM) at various concentrations for 48 h. Upon completion of the treatment, cells were harvested, washed with cool phosphate buffered solution (PBS, Gibco, United States) (0.01 M, pH=7.4), and re-suspended in a 500 μl binding buffer. Annexin V-FITC (5 μl) and PI (10 μl) were added into the cell suspension, and then, the suspension was incubated at room temperature away from light for 5 min. Cells were analyzed by using a flow cytometer (Agilent NovoCyte, China) immediately, and the results of the apoptosis were analyzed by FlowJo software.

Bax = assay: Western blot, Bax expression in HepG2 cells; format: cell-based, human; settings: HepG2, 25 μM, 48 h, vs DMSO control
Experimental: The experimental steps of the Western blotting assay referred to Lin’s study ([Lin et al., 2020]). After treatment with different concentrations of RPDPRH (0, 6.25, 12.5, and 25 μM) for 48 h, hepatocarcinoma cells were lysed with an ice-cold RIPA protein lysis buffer (Beyotime, China). Total cell lysates were prepared with RIPA lysis buffer containing phosphatase inhibitors (Roche, China) and protease inhibitors (MedChemExpress, United States). Total cell lysates were centrifuged at 10,000 g for 10 min at 4°C to obtain the supernatant. The protein concentration was detected according to the BCA Protein Assay Kit (Beyotime, China). Then, 5× SDS loading buffer (Beyotime, China) was added to the supernatant and boiled at 100°C for 10 min. The obtained protein samples were stored at −80°C.
The protein samples (20 μg) were resolved on 4% concentration glue and 12% separating glue and prepared according to the SDS-PAGE Gel Quick Preparation Kit procedure (Beyotime, China). After electrophoresis at 80 V for 1.5–2 h, the proteins were wet-transferred onto a polyvinylidene difluoride membrane (PVDF, Millipore) at 300 mA for 1–1.5 h. […]

7402 cells = assay: Wound healing assay, 7402; format: cell-based, human; settings: 48 h
Experimental: The experimental procedures were performed according to conventional methods ([Kovaříková et al., 2014]). Hepatocarcinoma cells at the logarithmic growth stage were taken and inoculated into six-well plates with 2 × 10^4 cells/well. When the cell density is about 80%, the cell wound was scratched with pipette tips. Cells were then washed with PBS and added to the cell culture broth containing 1% serum with varying concentrations of RPDPRH (0 μM, 6.25, 12.5, and 25 μM) for 48 h. Pictures were taken at 0 and 48 h under a microscope (100×). Wound healing rate (%) = [(0 h scratch distance−48 h scratch distance)/0 h scratch distance] × 100%.

O=C1/C(=C/c2ccc(Cl)cc2)CC(/C=C/c2ccc(Cl)cc2)(C(=O)NC2CCCCC2)N1c1ccc(F)cc1 (centres unmarked) [RPDPRH, (2E, 4E)-4-(4-chlorobenzylidene)-2-(4-chlorostyryl)-N-cyclohexyl-1-(4-fluorophenyl)-5-oxopyrrolidine-2-carboxamide]
IC50 (CaSki cells): 6.42 µM | IC50 (HeLa cells): 15.2 µM | IC50 (LO2 cells; Homo sapiens, L02, normal liver LO2 cells, 48 h, read-out: Half inhibitory concentration (IC50), LO2): > 100 µM | toxicity to the normal hepatic LO2 cells (LO2 cells; LO2 cells, insignificant inhibition at 100 µM (Table 1 footnote b)): no significant toxicity | early apoptotic cell (LR) rate (HepG2 cells; HepG2, 6.25 μM): 5.53% | late apoptotic (UR) rate (HepG2 cells; HepG2, 6.25 μM): 5.07% | total apoptosis rate (HepG2 cells; HepG2, 6.25 μM): 10.6 ± 1.49% | early apoptotic cell (LR) rate (HepG2 cells; HepG2, 12.5 μM): 14.90% | late apoptotic (UR) rate (HepG2 cells; HepG2, 12.5 μM): 21.00% | total apoptosis rate (HepG2 cells; HepG2, 12.5 μM): 35.90 ± 2.51% | early apoptotic cell (LR) rate (HepG2 cells; HepG2, 25 μM): 19.80% | late apoptotic (UR) rate (HepG2 cells; HepG2, 25 μM): 32.30% | total apoptosis rate (HepG2 cells; HepG2, 25 μM): 52.10 ± 4.49% | ratio of Bax/Bcl-2 (Bax): increase obviously | expression of pro-apoptotic protein Bax (Bax; p < 0.05): significant increase | wound healing rate (7402 cells; 7402, 25 μM, vs DMSO control, p < 0.01): reduced significantly | wound healing rate (7402 cells; 7402, 6.25, 12.5 and 25 μM): significantly reduced
